Measured values from PMC9409646 (Marine Drugs, 2022).

System: hα3β4 nAChRs
Format: cell-based, human

Substance | activity at hα3β4 nAChRs compared with wild-type Czon1107 (in words) | inhibition of ACh-evoked current amplitude
Czon1107-F9A: Ala-scan analogue of Czon1107 (GFRSPCPPAC) | slight potency decrease | –
Czon1107-G1R: Arg-scan analogue of Czon1107 (RFRSPCPPFC) | – | ~ 50%
Czon1107-P5R: Arg-scan analogue of Czon1107 (GFRSRCPPFC) | No significant change in activity | –
Czon1107-P7R: Arg-scan analogue of Czon1107 (GFRSPCRPFC) | – | ~ 50%
Czon1107-P8R: Arg-scan analogue of Czon1107 (GFRSPCPRFC) | No significant change in activity | –
